Where two headings read alike, the source gives them in different places. Starred links: 1 amine or outer side, 2 acyl side, 3 side chain; linkers in the order of their positions; H or OH if unused. Positions of bridges follow the written chain, without caps; N, C: chain ends. Non-standard residues stand in square brackets, D forms with d. Residues, ends and D or L forms follow the SMILES beside them. *: point of attachment. Trp(2-yl) = O=C([C@H](Cc1c([*:3])[nH]c2ccccc12)N[*:1])[*:2]; X8 = O=C([C@H](Cc1cccc([*:3])c1)N[*:1])[*:2]; mXylylene = c1cc(C[*:1])cc(C[*:2])c1; oXylylene = c1ccc(C[*:2])c(C[*:1])c1; Stearoyl = CCCCCCCCCCCCCCCCCC(=O)*; βAla = NCCC(=O)O
Target: Keap1-Maltose Binding Protein (MBP tag) (Homo sapiens, UniProt Q14145)
Sequence (Q14145 whole entry): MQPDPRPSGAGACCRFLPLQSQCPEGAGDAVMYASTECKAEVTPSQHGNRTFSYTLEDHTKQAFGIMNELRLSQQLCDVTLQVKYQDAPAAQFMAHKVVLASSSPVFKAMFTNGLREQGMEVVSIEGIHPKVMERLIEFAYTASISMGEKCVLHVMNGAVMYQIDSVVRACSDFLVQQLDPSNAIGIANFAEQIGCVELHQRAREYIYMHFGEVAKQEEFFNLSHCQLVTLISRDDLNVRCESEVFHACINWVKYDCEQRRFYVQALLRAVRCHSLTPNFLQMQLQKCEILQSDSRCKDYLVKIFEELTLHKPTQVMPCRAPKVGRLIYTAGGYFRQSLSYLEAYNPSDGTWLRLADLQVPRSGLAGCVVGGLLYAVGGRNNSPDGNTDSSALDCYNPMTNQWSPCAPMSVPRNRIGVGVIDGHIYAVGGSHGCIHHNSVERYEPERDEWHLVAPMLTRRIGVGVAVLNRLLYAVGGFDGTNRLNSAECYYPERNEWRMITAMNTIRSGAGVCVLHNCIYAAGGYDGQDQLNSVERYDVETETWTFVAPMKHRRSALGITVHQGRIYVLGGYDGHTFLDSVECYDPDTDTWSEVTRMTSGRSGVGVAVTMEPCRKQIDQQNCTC
Assay: Nrf2-Keap1 HTRF (TR-FRET) binding assay: displacement of biotinylated ETGE peptide from Keap1-MBP
[1] = HTRF (TR-FRET), displacement of ETGE-biotin from Keap1-MBP, values banded into grades, read-out: Binding (IC50) ETGE-Keap1

Compound | IC50 [1] | IC50
CC(C)C[C@H](NC(=O)[C@@H]1CSCc2cccc(c2)CSC[C@H](NC(=O)[C@H](CCC(N)=O)NC(=O)[C@@H](N)CC(C)C)C(=O)N[C@@H](CC(=O)O)C(=O)N[C@@H](C)C(=O)N[C@@H](CCC(=O)O)C(=O)N[C@@H]([C@@H](C)O)C(=O)NCC(=O)N[C@@H](CCC(=O)O)C(=O)N1)C(=O)N1CCC[C@H]1C(=O)NCCC(=O)N[C@@H](Cc1ccc(O)cc1)C(=O)N[C@@H](C)C(=O)N[C@@H](CCCNC(=N)N)C(=O)N[C@@H](C)C(=O)N[C@@H](C)C(=O)N[C@@H](C)C(=O)N[C@@H](CCCNC(=N)N)C(=O)N[C@@H](CCC(N)=O)C(=O)N[C@@H](C)C(=O)N[C@@H](CCCNC(=N)N)C(=O)N[C@@H](C)C(N)=O [Example 15] (H-LQCDAETGECLP[βAla]YARAAARQARA-NH2; linker 3-10 via mXylylene) | 1 to 100 nM | 
CC(C)C[C@H](NC(=O)[C@@H]1CSCc2ccccc2CSC[C@H](NC(=O)[C@H](CCC(N)=O)NC(=O)[C@@H](N)CC(C)C)C(=O)N[C@@H](CC(=O)O)C(=O)N[C@@H](C)C(=O)N[C@@H](CCC(=O)O)C(=O)N[C@@H]([C@@H](C)O)C(=O)NCC(=O)N[C@@H](CCC(=O)O)C(=O)N1)C(=O)N1CCC[C@H]1C(=O)O [Example 19, {[H-Leu-Gln-Cys(&^1)-Asp-Ala-Glu-Thr-Gly-Glu-Cys(&^2)-Leu-Pro-OH][&^1(1,2-phenylenediyl)dimethylene&^2]}] (H-LQCDAETGECLP-OH; linker 3-10 via oXylylene) | 1 to 100 nM | 
CCCCCCCCCCCCCCCCCCC(=O)N[C@H]1C[C@H]2C(=O)N[C@@H](CCC(N)=O)C(=O)N[C@H]3CSCc4ccccc4CSC[C@H](NC(=O)[C@H](CCC(=O)O)NC(=O)CNC(=O)[C@H]([C@@H](C)O)NC(=O)[C@H](CCC(=O)O)NC(=O)[C@@H]4CCCN4C(=O)[C@H](CC(=O)O)NC3=O)C(=O)N[C@@H](CC(C)C)C(=O)N3CCC[C@@H]3C(=O)N2C1 [Example 98, {[&^1Pro((4S)-NH-Nonadecanoyl)-Gln-Cys(&^2)-Asp-Pro-Glu-Thr-Gly-Glu-Cys(&^3)-Leu-D-Pro&^1][&^2(1,2-phenylenediyl)dimethylene&^3]}] |  | < 1 nM
CCCCCCCCCCCCCCCCCC(=O)NCCCC[C@@H]1NC(=O)[C@H]2CCCN2C(=O)[C@H](CC(C)C)NC(=O)[C@@H]2CSCc3ccccc3CSC[C@H](NC(=O)[C@H](CCC(N)=O)NC1=O)C(=O)N[C@@H](CC(=O)O)C(=O)N1CCC[C@H]1C(=O)N[C@@H](CCC(=O)O)C(=O)N[C@@H]([C@@H](C)O)C(=O)NCC(=O)N[C@@H](CCC(=O)O)C(=O)N2 [Example 91, {[&^1Lys(N^6-Stearyl)-Gln-Cys(&^2)-Asp-Pro-Glu-Thr-Gly-Glu-Cys(&^3)-Leu-D-Pro&^1][&^2(1,2-phenylenediyl)dimethylene&^3]}] |  | < 1 nM
CC(C)C[C@H](NC(=O)[C@@H]1CSc2[nH]c3ccccc3c2C[C@H](NC(=O)[C@H](CCC(N)=O)NC(=O)[C@@H](N)CC(C)C)C(=O)N[C@@H](CC(=O)O)C(=O)N[C@@H](CCC(=O)O)C(=O)N[C@@H](CCC(=O)O)C(=O)N[C@@H]([C@@H](C)O)C(=O)NCC(=O)N[C@@H](CCC(=O)O)C(=O)N1)C(=O)N1CCC[C@H]1C(=O)O [Example 1, H-Leu-Gln-Trp(indol-2-yl-&^1)-Asp-Glu-Glu-Thr-Gly-Glu-Cys(&^1)-Leu-Pro-OH] (H-LQ[Trp(2-yl)]DEETGECLP-OH; thioether 3-10) |  | 1 to 100 nM
CC(C)C[C@H](NC(=O)[C@@H]1CSCc2cc3ccccc3cc2CSC[C@H](NC(=O)[C@H](CCC(N)=O)NC(=O)[C@@H](N)CC(C)C)C(=O)N[C@@H](CC(=O)O)C(=O)N2CCC[C@H]2C(=O)N[C@@H](CCC(=O)O)C(=O)N[C@@H]([C@@H](C)O)C(=O)NCC(=O)N[C@@H](CCC(=O)O)C(=O)N1)C(=O)N1CCC[C@H]1C(=O)NCCC(=O)N[C@@H](CCCNC(=N)N)C(=O)N[C@@H](CCCNC(=N)N)C(=O)N[C@@H](CCCNC(=N)N)C(=O)N[C@@H](CCCNC(=N)N)C(=O)N[C@@H](CCCNC(=N)N)C(=O)N[C@@H](CCCNC(=N)N)C(=O)N[C@@H](CCCNC(=N)N)C(=O)N[C@@H](CCCNC(=N)N)C(N)=O [Example 68, {[H-Leu-G1n-Cys(&^1)-Asp-Pro-Glu-Thr-G1y-Glu-Cys(&^2)-Leu-Pro-βAla-Arg8-NH2][&^1(naphthalene)2,3-diyldimethylene&^2]}] | 1 to 100 nM | 
CCCCCCCCCCCCCCCCCC(=O)NCCC(=O)N[C@@H](CC(C)C)C(=O)N[C@@H](CCC(N)=O)C(=O)N[C@H]1Cc2cccc(c2)SC[C@@H](C(=O)N[C@@H](CC(C)C)C(=O)N2CCC[C@H]2C(=O)O)NC(=O)[C@H](CCC(=O)O)NC(=O)CNC(=O)[C@H]([C@@H](C)O)NC(=O)[C@H](CCC(=O)O)NC(=O)[C@@H]2CCCN2C(=O)[C@H](CC(=O)O)NC1=O [Example 40, Stearyl-βAla-Leu-Gln-Phe(m-&^1)-Asp-Pro-Glu-Thr-Gly-Glu-Cys(&^1)-Leu-Pro-OH] ({Stearoyl-βAla}-LQ[X8]DPETGECLP-OH; thioether 3-10) | 1 to 100 nM | 
CC(C)C[C@H](NC(=O)[C@@H]1CSCc2cc3ccccc3cc2CSC[C@H](NC(=O)[C@H](CCC(N)=O)NC(=O)[C@@H](N)CC(C)C)C(=O)N[C@@H](CC(=O)O)C(=O)N2CCC[C@H]2C(=O)N[C@@H](CCC(=O)O)C(=O)N[C@@H]([C@@H](C)O)C(=O)NCC(=O)N[C@@H](CCC(=O)O)C(=O)N1)C(=O)N1CCC[C@H]1C(=O)NCCC(=O)N[C@@H](CCCNC(=N)N)C(=O)N[C@@H](CCCNC(=N)N)C(=O)N[C@@H](CCCNC(=N)N)C(=O)N[C@@H](CCCNC(=N)N)C(=O)N[C@@H](CCCNC(=N)N)C(=O)N[C@@H](CCCNC(=N)N)C(=O)N[C@@H](CCCNC(=N)N)C(=O)N[C@@H](CCCNC(=N)N)C(=O)N[C@@H](CCCNC(=N)N)C(=O)N[C@@H](CCCNC(=N)N)C(N)=O [Example 69, {[H-Leu-G1n-Cys(&^1)-Asp-Pro-Glu-Thr-Gly-Glu-Cys(&^2)-Leu-Pro-βAla-Arg10-NH2][&^1(naphthalene)2,3-diyldimethylene&^2]}] | 1 to 100 nM | 
CC/C=C\C/C=C\C/C=C\CCCCCCCC(=O)N[C@H]1C[C@H]2C(=O)N[C@@H](CCC(N)=O)C(=O)N[C@H]3CSCc4ccccc4CSC[C@H](NC(=O)[C@H](CCC(=O)O)NC(=O)CNC(=O)[C@H]([C@@H](C)O)NC(=O)[C@H](CCC(=O)O)NC(=O)[C@@H]4CCCN4C(=O)[C@H](CC(=O)O)NC3=O)C(=O)N[C@@H](CC(C)C)C(=O)N3CCC[C@@H]3C(=O)N2C1 [Example 86, {[&^1Pro((4S)-NH-α-linolenyl)-Gln-Cys(&^2)-Asp-Pro-Glu-Thr-Gly-Glu-Cys(&^3)-Leu-D-Pro&^1][&^2(1,2-phenylenediyl)dimethylene&^3]}] |  | < 1 nM
CCCCCCCCCCCCCC(=O)N[C@H]1C[C@H]2C(=O)N[C@@H](CCC(N)=O)C(=O)N[C@H]3CSCc4ccccc4CSC[C@H](NC(=O)[C@H](CCC(=O)O)NC(=O)CNC(=O)[C@H]([C@@H](C)O)NC(=O)[C@H](CCC(=O)O)NC(=O)[C@@H]4CCCN4C(=O)[C@H](CC(=O)O)NC3=O)C(=O)N[C@@H](CC(C)C)C(=O)N3CCC[C@@H]3C(=O)N2C1 [Example 80, {[&^1Pro((4S)-NH-Miristoyl)-Gln-Cys(&^2)-Asp-Pro-Glu-Thr-Gly-Glu-Cys(&^3)-Leu-D-Pro&^1][&^2(1,2-phenylenediyl)dimethylene&^3]}] |  | < 1 nM
CC(C)C[C@H](NC(=O)[C@@H]1CSCc2ccccc2CSC[C@H](NC(=O)[C@H](CCC(N)=O)NC(=O)[C@@H](N)CC(C)C)C(=O)N[C@@H](CC(=O)O)C(=O)N[C@@H](C)C(=O)N[C@@H](CCC(=O)O)C(=O)N[C@@H]([C@@H](C)O)C(=O)NCC(=O)N[C@@H](CCC(=O)O)C(=O)N1)C(=O)N1CCC[C@H]1C(=O)NCCC(=O)N[C@@H](CCCNC(=N)N)C(=O)N[C@@H](CCCCN)C(=O)N[C@@H](CCCCN)C(=O)N[C@@H](CCCNC(=N)N)C(=O)N[C@@H](CCCNC(=N)N)C(=O)N[C@@H](CCC(N)=O)C(=O)N[C@@H](CCCNC(=N)N)C(=O)N[C@@H](CCCNC(=N)N)C(=O)N[C@@H](CCCNC(=N)N)C(N)=O [Example 18] | 1 to 100 nM | 
CC(=O)N[C@H]1CSCc2ccccc2CSC[C@@H](C(N)=O)NC(=O)[C@H](CCC(=O)O)NC(=O)CNC(=O)[C@H]([C@@H](C)O)NC(=O)[C@H](CCC(=O)O)NC(=O)[C@H](C)N(C)C(=O)[C@H](CC(=O)O)NC1=O [Example 43, {[Acetyl-Cys(&^1)-Asp-MeAla-Glu-Thr-Gly-Glu-Cys(&^2)-NH2][&^1(1,2-phenylenediyl)dimethylene&^2]}] | 1 to 100 nM | 
CC(C)C[C@H](NC(=O)[C@@H]1CSCc2cccc(c2)CSC[C@H](NC(=O)[C@H](CCC(N)=O)NC(=O)[C@@H](N)CC(C)C)C(=O)N[C@@H](CC(=O)O)C(=O)N[C@@H](CCC(=O)O)C(=O)N[C@@H](CCC(=O)O)C(=O)N[C@@H]([C@@H](C)O)C(=O)NCC(=O)N[C@@H](CCC(=O)O)C(=O)N1)C(=O)N1CCC[C@H]1C(=O)O [Example 3, {[H-Leu-Gln-Cys(&^1)-Asp-Glu-Glu-Thr-Gly-Glu-Cys(&^2)-Leu-Pro-OH][&^1(1,3-phenylenediyl)dimethylene&^2]}] (H-LQCDEETGECLP-OH; linker 3-10 via mXylylene) | 1 to 100 nM | 
CCCCCCCCCCCCCCCCCCCCCC(=O)N[C@H]1C[C@H]2C(=O)N[C@@H](CCC(N)=O)C(=O)N[C@H]3CSCc4ccccc4CSC[C@H](NC(=O)[C@H](CCC(=O)O)NC(=O)CNC(=O)[C@H]([C@@H](C)O)NC(=O)[C@H](CCC(=O)O)NC(=O)[C@@H]4CCCN4C(=O)[C@H](CC(=O)O)NC3=O)C(=O)N[C@@H](CC(C)C)C(=O)N3CCC[C@@H]3C(=O)N2C1 [Example 89, {[&^1Pro((4S)-NH-behenyl)-Gln-Cys(&^2)-Asp-Pro-Glu-Thr-Gly-Glu-Cys(&3)-Leu-D-Pro&^1][&^2(1,2-phenylenediyl)dimethylene&^3]}] |  | < 1 nM
CCCCCCCCCCCCCCCCCCCC(=O)N[C@H]1C[C@H]2C(=O)N[C@@H](CCC(N)=O)C(=O)N[C@H]3CSCC4(COC4)CSC[C@H](NC(=O)[C@H](CCC(=O)O)NC(=O)CNC(=O)[C@H]([C@@H](C)O)NC(=O)[C@H](CCC(=O)O)NC(=O)[C@@H]4CCCN4C(=O)[C@H](CC(=O)O)NC3=O)C(=O)N[C@@H](CC(C)C)C(=O)N3CCC[C@@H]3C(=O)N2C1 [Example 95, {[&^1Pro((4S)-NH-Arachidyl)-Gln-Cys(&^2)-Asp-Pro-Glu-Thr-Gly-Glu-Cys(&^3)-Leu-D-Pro&^1][&^2(3,3-oxetanediyl)dimethylene&^3]}] |  | < 1 nM

Reference: patent publication US20200255478A1, “NOVEL COMPOUNDS ACTIVATING THE NRF2 PATHWAY” (Almirall, S.A., priority 2017, published 2020)
